# Measured values published in patent publication US20200207822A1, “PEPTIDE INHIBITORS OF INTERLEUKIN-23 RECEPTOR AND THEIR USE TO TREAT INFLAMMATORY DISEASES” (Protagonist Therapeutics, Inc., priority 2017, published 2020).
# Positions of bridges follow the written chain, without caps; N, C: chain ends. Non-standard residues stand in square brackets, D forms with d. 2Nal = N[C@@H](Cc1ccc2ccccc2c1)C(=O)O; AEF = NCCOc1ccc(C[C@H](N)C(=O)O)cc1; αMeL = CC(C)C[C@](C)(N)C(=O)O; Pen = CC(C)(S)[C@H](N)C(=O)O; Thp = NC1(C(=O)O)CCOCC1; Abu = CC[C@H](N)C(=O)O
# Test system: IL-23R-expressing DB cells stimulated with IL-23 (pSTAT3 levels)
# Assay: DB cells IL23R pSTAT3 cell assay (Cisbio HTRF pSTAT3)
# Type: cell-based, human
# Conditions: Table E1, Pen-Pen disulfide peptides, IL-23 0.5 nM, 30 minutes at 37° C.
# Excerpt: Human ELISA indicates the IL23-IL23R competitive binding assay described below, Rat ELISA indicates the rat IL-23R competitive binding ELISA assay described below, and pStat3HTRF indicates the DB cells IL-23R pSTAT3 cell assay described below. The peptides depicted in Table E1 are cyclized via a disulfide bridge formed between two Pen residues in these peptides. The peptides depicted in Table E2 are cyclized via a thioether bond between the indicated amino acid residues. Table E2 provides an illustrative structure depicting thioether cyclization, which is indicated in the table by the term “cyclo,” with the cyclic region bracketed immediately following the term “cyclo.” For certain peptides, the residue Abu is present where indicated, whereas in other embodiments, e.g., those related to the non-cyclized form, the Abu may be referred to as a hSer(Cl) or homoSer residue.
# DB Cells IL23R pSTAT3 Cell Assay
# IL-23 plays a central role in supporting and maintaining Th17 differentiation in vivo. […] This cell assay examines the levels of pSTAT3 in IL-23R-expressing DB cells when stimulated with IL-23 in the presence of test compounds.
row,Substance,IC50
1,8 (Ac-[Pen]NTWQ[Pen][AEF]W[Thp]K(Ac)NN-NH2; disulfide 1-6 (inferred)) [compound 8],1 to 10 nM

# Same assay, conditions: Table E2, thioether peptides, IL-23 0.5 nM, 30 minutes at 37° C.
row,Substance,IC50
1,73 (XXQTWQCXXXEND; MOD_RES (1)..(1) D-form arginine; MOD_RES (2)..(2) Abu; (2)..(7) residues cyclosized; MOD_RES (8)..(8) 4-(2-aminoethoxy)-L-phenylalanine; MOD_RES (9)..(9) L-2-Napthylalanine; MOD_RES (10)..(10) 4-amino-4-carboxy-tetrahydropyran) [compound 73],1 to 10 nM
2,82 (Ac-[dR][Abu]ETWEC[AEF][2Nal][Thp]ENN-NH2; thioether 2-7) [compound 82],1 to 10 nM
3,80 (Ac-[dR][Abu]QTWEC[AEF][2Nal][Thp]EDN-NH2; thioether 2-7) [compound 80],10 to 100 nM
4,74 (XXQTWQCXXXEDN; MOD_RES (1)..(1) D-form arginine; MOD_RES (2)..(2) Abu; (2)..(7) residues cyclosized; MOD_RES (8)..(8) 4-(2-aminoethoxy)-L-phenylalanine; MOD_RES (9)..(9) L-2-Napthylalanine; MOD_RES (10)..(10) 4-amino-4-carboxy-tetrahydropyran) [compound 74],10 to 100 nM
5,100 (XXQTWWCXXXENN; MOD_RES (1)..(1) D-form arginine; MOD_RES (2)..(2) Abu; (2)..(7) residues cyclosized; MOD_RES (8)..(8) 4-(2-aminoethoxy)-L-phenylalanine; MOD_RES (9)..(9) L-2-Napthylalanine; MOD_RES (10)..(10) 4-amino-4-carboxy-tetrahydropyran) [compound 100],1 to 10 nM
6,86 (XXQTWECXXXENN; MOD_RES (1)..(1) D-form arginine; MOD_RES (2)..(2) Abu; (2)..(7) residues cyclosized; MOD_RES (8)..(8) 4-(2-aminoethoxy)-L-phenylalanine; MOD_RES (9)..(9) L-2-Napthylalanine; MOD_RES (10)..(10) 4-amino-4-carboxy-tetrahydropyran) [compound 86],1 to 10 nM
7,103 (XXQTWVCXXXENN; MOD_RES (1)..(1) D-form arginine; MOD_RES (2)..(2) Abu; (2)..(7) residues cyclosized; MOD_RES (8)..(8) 4-(2-aminoethoxy)-L-phenylalanine; MOD_RES (9)..(9) L-2-Napthylalanine; MOD_RES (10)..(10) 4-amino-4-carboxy-tetrahydropyran) [compound 103],10 to 100 nM
8,75 (XXQTWECXXXENN; MOD_RES (1)..(1) D-form arginine; MOD_RES (2)..(2) Abu; (2)..(7) residues cyclosized; MOD_RES (8)..(8) 4-(2-aminoethoxy)-L-phenylalanine; MOD_RES (9)..(9) L-2-Napthylalanine; MOD_RES (10)..(10) 4-amino-4-carboxy-tetrahydropyran) [compound 75],1 to 10 nM
9,77 (Ac-[dR][Abu]QTWQC[AEF][2Nal][Thp]EDD-NH2; thioether 2-7) [compound 77],10 to 100 nM
10,99 (XXQTWFCXXXENN; MOD_RES (1)..(1) D-form arginine; MOD_RES (2)..(2) Abu; (2)..(7) residues cyclosized; MOD_RES (8)..(8) 4-(2-aminoethoxy)-L-phenylalanine; MOD_RES (9)..(9) L-2-Napthylalanine; MOD_RES (10)..(10) 4-amino-4-carboxy-tetrahydropyran) [compound 99],10 to 100 nM
11,84 (XXQTWQCXXXEND; MOD_RES (1)..(1) D-form arginine; MOD_RES (2)..(2) Abu; (2)..(7) residues cyclosized; MOD_RES (8)..(8) 4-(2-aminoethoxy)-L-phenylalanine; MOD_RES (9)..(9) L-2-Napthylalanine; MOD_RES (10)..(10) 4-amino-4-carboxy-tetrahydropyran) [compound 84],10 to 100 nM
12,85 (XXQTWQCXXXEDN; MOD_RES (1)..(1) D-form arginine; MOD_RES (2)..(2) Abu; (2)..(7) residues cyclosized; MOD_RES (8)..(8) 4-(2-aminoethoxy)-L-phenylalanine; MOD_RES (9)..(9) L-2-Napthylalanine; MOD_RES (10)..(10) 4-amino-4-carboxy-tetrahydropyran) [compound 85],10 to 100 nM

# Same assay, conditions: Table L3 (E3), additional peptide inhibitors, IL-23 0.5 nM, 30 minutes at 37° C.
row,Substance,IC50
1,156 (XXQTWQCXXXKNN; MOD_RES (1)..(1) D-form arginine; MOD_RES (2)..(2) Abu; (2)..(7) residues cyclosized; MOD_RES (8)..(8) 4-(2-aminoethoxy)-L-phenylalanine; MOD_RES (9)..(9) L-2-Napthylalanine; MOD_RES (10)..(10) 4-amino-4-carboxy-tetrahydropyran; MOD_RES (11)..(11) PEG12 conjugation) [compound 156],1 to 10 nM
2,158 (XNTWQXXXXKNND; MOD_RES (1)..(1) L-Penicillamine; MOD_RES (6)..(6) L-Penicillamine; MOD_RES (7)..(7) 4-(2-aminoethoxy)-L-phenylalanine; MOD_RES (8)..(8) L-2-Napthylalanine; MOD_RES (9)..(9) alpha-methyl-L-Leucine; MOD_RES (10)..(10) …ON) [compound 158],1 to 10 nM
3,160 (XNTWQXXXXKNNW; MOD_RES (1)..(1) L-Penicillamine; MOD_RES (6)..(6) L-Penicillamine; MOD_RES (7)..(7) 4-(2-aminoethoxy)-L-phenylalanine; MOD_RES (8)..(8) L-2-Napthylalanine; MOD_RES (9)..(9) alpha-methyl-L-Leucine; MOD_RES (10)..(10) …ON) [compound 160],1 to 10 nM
4,163 (XNTWQXXXXKNNG; MOD_RES (1)..(1) L-Penicillamine; MOD_RES (6)..(6) L-Penicillamine; MOD_RES (7)..(7) 4-(2-aminoethoxy)-L-phenylalanine; MOD_RES (8)..(8) L-2-Napthylalanine; MOD_RES (9)..(9) alpha-methyl-L-Leucine; MOD_RES (10)..(10) …ON) [compound 163],1 to 10 nM
5,182 (Ac-[Pen]NTWQ[Pen][4‑Carbamoyl‑L‑phenylalanine][2Nal][αMeL]K(Ac)NNK(Ac)-NH2; disulfide 1-6 (inferred)) [compound 182],1 to 10 nM
6,181 (XNTWQXXXXKNNK; MOD_RES (1)..(1) L-Penicillamine; MOD_RES (6)..(6) L-Penicillamine; MOD_RES (7)..(7) 4-(2-aminoethoxy)-L-phenylalanine; MOD_RES (8)..(8) L-2-Napthylalanine; MOD_RES (9)..(9) alpha-methyl-L-Leucine; MOD_RES (10)..(10) …ON; MOD_RES (13)..(13) …ON) [compound 181],1 to 10 nM
7,180 (Ac-K(Ac)[Pen]NTWQ[Pen][4‑Carbamoyl‑L‑phenylalanine][2Nal][αMeL]K(Ac)NN-NH2; disulfide 2-7 (inferred)) [compound 180],1 to 10 nM
